Source: patent US20240246941A1, “SUBSTITUTED 4-(3-AMINOPROP-1-YL)AMINOQUINOLINE ANALOGS AS MODULATORS OF MELANOMA-ASSOCIATED ANTIGEN 11 UBIQUITIN LIGASE” (ST. JUDE CHILDREN'S RESEARCH HOSPITAL, INC., priority 2020, published 2024)
Where two headings read alike, the source gives them in different places. Where a SMILES comes first, the peptide text is derived from it. [ ]: non-standard residue; d: D form. Phe(4-CN) = N#Cc1ccc(C[C@H](N)C(=O)O)cc1; Phe(3-Me) = Cc1cccc(C[C@H](N)C(=O)O)c1

Target: interaction between GST-MAGEA11 MHD and FAM-PCF11_4 peptide (MAGE-A11:PCF11) (Homo sapiens (Human), UniProt P43364)
Experiment: TR-FRET dose response competition assay for disruption of MAGE-A11:PCF11 binding
Excerpt: TR-FRET Assays and High-throughput Screen. Terbium-anti-GST antibody, 1 M Tris pH 7.5 1 M MgCl2 and 1 M DTT were purchased from Invitrogen (Carlsbad, CA), BSA was purchased from Sigma (St. Louis, MO). Dimethyl sulfoxide (DMSO) was purchased from Fisher Scientific (Pittsburgh, PA). Black 384-well low volume plates and 384-well polypropylene compound plates were purchased from Corning Incorporated (Tewksbury, MA). The St. Jude FDA drug and Bioactive library (11,293 chemicals), Drug-like library (10,073 chemicals) and Lead-like library (10,041 chemicals) were custom assembled and purchased from commercial sources including Sigma, Microsource (Gaylordsville, CT), selleckchem (Houston, TX), ChemDiv (San Diego, CA), ChemBridge (San Diego, CA), Enamine (Monmouth Jct., NJ), and Life Chemicals (Niagara-on-the-Lake, ON, Canada). They were arrayed (10 mM in DMSO) in 384-well polypropylene compound plates with columns 1, 2, 13 and 14 empty which were reserved for controls.
The TR-FRET assay buffer with a formula of 50 mM Tris pH 7.5, 20 mM MgCl2, 0.1 mg/ml BSA and 1 mM DTT was freshly prepared before each experiment. All TR-FRET assays were performed in black 384-well plates with 20 μl/well assay volume in the TR-FRET assay buffer at room temperature (approximately 25° C.). All peptides or compounds were solubilized in DMSO. To test the competitive activity of peptides or compounds against the interaction between GST-MAGEA11 MHD and FAM-PCF11_4 peptide, 10 μl/well peptide or compound at specified concentration was dispensed into a black 384-well low volume plate, followed by 5 μl/well FAM-PCF11_4 (800 nM), 5 μl/well Tb-anti-GST (20 nM) and GST-MAGEA11 MHD (20 nM). The assay components in each well was then mixed by shaking the plate on an IKA MTS 2/4 digital microtiter plate shaker (IKA Works; Wilmington, NC, USA) at 900 RPM for 1 minute. The plate was further centrifuged in an Eppendorf 5810 centrifuge with an A-4-62 swing-bucket rotor (Eppendorf AG, Hamburg, Germany) at 201 g (1000 rpm) for 30 seconds. The plate was then incubated for 90 min with a lid to avoid light exposure to the assay components. After incubation, the fluorescent emission signals at 520 nm and 490 nm channels of individual wells were measured with a PHERAstar FS plate reader (BMG Labtech; Durham, NC, USA) by using a 340 nm excitation filter, 100 μs delay time, and 200 μs integration time. The TR-FRET fluorescence emission ratio (TR-FRET signal) for each well was presented as 10 000×520 nm/490 nm, which was used directly for curve fitting, or further converted to % Inhibition based on the respective positive and negative controls. The graphic software GraphPad Prism 4.81 (GraphPad Software; La Jolla, CA, USA) was used to generate curves and derive IC50 values of tested peptides or compounds, if applicable.
TR-FRET inhibitory activity characterization of a panel of PCF11 peptides against the interaction between GST-MAGEA11 MHD and FAM-PCF11_4 was performed as follows. In a 20 μl/well assay volume, dilutions of PCF11_1 to PCF11_8 peptides (concentrations ranged from 3.1 nM to 100 μM for peptides PCF11_4, PCF11_5, PCF11_6 and PCF11_8 in a 1-to-2 dilution pattern for 16 concentration levels, and ranged from 48.9 nM to 100 μM for peptides of PCF11_1, PCF11_2, PCF11_3 and PCF11_7 in a 1-to-2 dilution pattern for 12 concentration levels), 200 nM FAM-PCF11_4, 5 nM Tb-anti-GST and 5 nM GST-MAGEA11 were mixed together and incubated for 90 min before the TR-FRET signal for each well was measured. The final DMSO concentration was 1.1% (v/v). […] The signal of each peptide-treated well (Signalpeptide) was normalized to the positive and negative controls to derive % inhibition of the peptide at a specific concentration with equation 1. Where applicable, the % Inhibition data were fit into a Sigmoidal dose response equation to derive IC50 values.
TR-FRET screen for identifying MAGEA11 small molecule inhibitors was performed as follows.

[1] = PCF11 peptides, read-out: IC50 of PCF11 peptides binding to GST-MAGE-A11 by TR-FRET
[2] = Dose response TR-FRET screening of nine scaffold groups against MAGE-A11:PCF11, read-out: consensus IC50

interaction between GST-MAGEA11 MHD and FAM-PCF11_4 peptide (MAGE-A11:PCF11), sequence (P43364 218-429): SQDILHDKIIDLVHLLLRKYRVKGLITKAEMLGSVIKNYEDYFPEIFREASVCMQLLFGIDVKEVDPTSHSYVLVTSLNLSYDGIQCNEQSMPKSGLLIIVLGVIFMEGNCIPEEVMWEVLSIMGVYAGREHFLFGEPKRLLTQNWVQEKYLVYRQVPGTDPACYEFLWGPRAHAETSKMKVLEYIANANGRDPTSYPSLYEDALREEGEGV

Structure (SMILES)	IC50 [2]	also measured
CC[C@H](C)[C@H](NC(=O)[C@H](CCC(N)=O)NC(=O)[C@H](Cc1c[nH]cn1)NC(=O)[C@@H](NC(=O)[C@@H](NC(=O)[C@@H](NC(=O)[C@H](CC(C)C)NC(=O)[C@@H](N)Cc1ccccc1)C(C)C)C(C)C)C(C)C)C(=O)N[C@@H](CCCNC(=N)N)C(=O)N[C@@H](CCC(N)=O)C(=O)N[C@@H](CC(C)C)C(=O)N[C@@H](Cc1cccc(C)c1)C(=O)N[C@@H](CCC(N)=O)C(=O)O [3-methyl-phenylanaline] (H-FLVVVHQIRQL[Phe(3-Me)]Q-OH; N-terminus and C-terminus assumed)		IC50 [1]: 0.0017 µM
CC[C@H](C)[C@H](NC(=O)[C@H](CCC(N)=O)NC(=O)[C@H](Cc1c[nH]cn1)NC(=O)[C@@H](NC(=O)[C@@H](NC(=O)[C@@H](NC(=O)[C@H](CC(C)C)NC(=O)[C@@H](N)Cc1ccccc1)C(C)C)C(C)C)C(C)C)C(=O)N[C@@H](CCCNC(=N)N)C(=O)N[C@@H](CCC(N)=O)C(=O)N[C@@H](CC(C)C)C(=O)N[C@@H](Cc1ccc(C#N)cc1)C(=O)N[C@@H](CCC(N)=O)C(=O)O [4-cyano-phenylalaninnne] (H-FLVVVHQIRQL[Phe(4-CN)]Q-OH; N-terminus and C-terminus assumed)		IC50 [1]: 0.663 µM
COc1ccc(F)cc1CNCCCNc1ccnc2cc(Cl)ccc12 [SJ000000500-3]	69.9 µM	
COc1ccc(F)cc1CNCCCNc1ccnc2cc(Cl)ccc12 [SJ000000500]		IC50 (Table 8, representative compounds, read-out: TR-FRET IC50): 69.9 µM
N#Cc1nc(-c2ccc(Cl)cc2)oc1N1CCOCC1 [SJ000010022-1]	69.9 µM	
N#Cc1nc(-c2ccc(F)cc2)oc1N1CCOCC1 [SJ000011204-1]	69.9 µM	
CCCN1C(=O)c2ccccc2NC1c1ccc(O)c(OCC)c1 (stereo not drawn) [SJ000019510-1]	69.9 µM	
Cc1ccc(C2Nc3ccccc3C(=O)N2Cc2ccccc2)cc1 (stereo not drawn) [SJ000019545-2]	69.9 µM	
O=C1c2ccccc2NC(c2ccc(Br)cc2)N1Cc1ccccc1 (stereo not drawn) [SJ000019546-2]	69.9 µM	
O=C1c2ccccc2NC(c2ccc(Cl)cc2)N1Cc1ccccc1 (stereo not drawn) [SJ000019547-2]	69.9 µM	
Cc1ccc(S(=O)(=O)N2CCN(C3=C(Cl)C(=O)c4ccccc4C3=O)CC2)cc1 [SJ000021282-1]	10.4 µM	
O=C(O)c1cccc(NC2=C(Cl)C(=O)c3ccccc3C2=O)c1 [SJ000022282-2]	69.9 µM	
O=C1C(Cl)=C(Nc2ccc(Br)cc2)C(=O)c2ccccc21 [SJ000024921-1]	69.9 µM	
CC(=O)Nc1ccc(NC2=C(Cl)C(=O)c3ccccc3C2=O)cc1 [SJ000024922-1]	69.9 µM	
CCCCOC(=O)c1ccc(NC2=C(Cl)C(=O)c3ccccc3C2=O)cc1 [SJ000024923-1]	69.9 µM	
O=C1C(Cl)=C(Nc2cccc(C(F)(F)F)c2)C(=O)c2ccccc21 [SJ000024924-2]	69.9 µM	
Cc1cccc(NC2=C(Cl)C(=O)c3ccccc3C2=O)c1 [SJ000024925-1]	69.9 µM	
COC(=O)c1cccc(NC2=C(Cl)C(=O)c3ccccc3C2=O)c1 [SJ000024926-1]	69.9 µM	
O=C1C(Cl)=C(NC(=O)C(F)(F)F)C(=O)c2ccccc21 [SJ000024928-1]	9.87 µM	
CC(=O)N(C1=C(Cl)C(=O)c2ccccc2C1=O)c1cccc(I)c1 [SJ000024931-1]	69.9 µM	
Cc1cccc(NC2=C(N)C(=O)c3ccccc3C2=O)c1 [SJ000024934-1]	69.9 µM	
CC(=O)N(C1=C(Cl)C(=O)c2ccccc2C1=O)c1ccc(C(=O)O)cc1 [SJ000024935-1]	69.9 µM	
CC(=O)N(C1=C(Cl)C(=O)c2ccccc2C1=O)c1ccc(F)cc1 [SJ000024947-1]	69.9 µM	
CCCN1C(=O)c2ccccc2NC1c1ccc(F)cc1 (stereo not drawn) [SJ000026516-2]	69.9 µM	
